Test results: patent US6096707A, “Integrin binding peptide and use thereof” (BioTie Therapies Ltd., priority 1997, dated 2000)
Positions of bridges follow the written chain, without caps; N, C: chain ends. Residues, ends and D or L forms follow the SMILES beside them.

Target: T1, human recombinant integrin α2I domain (rα2I) (Homo sapiens, UniProt P17301)
T1 construct: GST (glutathione S-transferase, pGEX2T) (N, cleaved yes); made in house; host or cells: E. coli BL21 (pJKα2I, pGEX2T backbone)
T1 sequence (P17301 153-368): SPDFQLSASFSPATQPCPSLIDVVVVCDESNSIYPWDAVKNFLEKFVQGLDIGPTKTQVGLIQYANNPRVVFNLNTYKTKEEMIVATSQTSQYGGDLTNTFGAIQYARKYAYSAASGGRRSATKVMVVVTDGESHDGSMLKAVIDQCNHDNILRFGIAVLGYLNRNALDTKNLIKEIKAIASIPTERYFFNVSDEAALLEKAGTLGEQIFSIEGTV
Type: binding
Protocol: A 96-well immunoplate (Maxisorp, Nunc) was coated by exposing the surface of its well to 0.1 ml of PBS containing 5 μg/cm^2 of the plate surface, type I collagen (bovine dermal, Cellon), type IV collagen (Sigma), laminin-1 (purified from basement membranes of the Engelbreth-Holm-Swarm mouse tumor, Collaborative Research), fibronectin (human plasma fibronectin, Boehringer Mannheim) or 3.3 μg/ml echovirus-1 or echovirus-7 for 12 h at +4° C. Alternatively peptides and B. jararaca venom (Sigma) were coated at various concentrations on 96-well amine binding plates (Costar) according to the manufacturer's instructions.
Residual protein absorption sites on all wells were blocked with 0.1% heat inactivated bovine serum albumin in PBS for 1 h at +37° C. Echoviruses 1 (Farouk strain) and 7 (Wallace) were obtained from the ATCC. The purified viruses were diluted in PBS containing 0.5 mM MgCl2 and stored at -70° C. until used. Europium labeled rα2I was added at a concentration of 500 ng/ml in PBS, 2 mM MgCl2, 1 mg/ml BSA to the coated wells and incubated for 3 h at +37° C. Wells were then washed three times with PBS, 2mM MgCl2. 0.1 ml Delfia enhancement solution (Wallac) was added to each well and europium signal was measured with fluorometry (Model 1232 Delfia, Wallac). […]

C[C@@H]1NC(=O)[C@H](CC(N)=O)NC(=O)[C@H](CC(=O)O)NC(=O)[C@H](Cc2c[nH]cn2)NC(=O)[C@H](CCCCN)NC(=O)[C@H](CCCCN)NC(=O)[C@H](CCCNC(=N)N)NC(=O)[C@H]([C@@H](C)O)NC(=O)[C@@H](N)CSSC[C@@H](C(=O)O)NC(=O)[C@H](CCC(N)=O)NC1=O [229ox, CTRKKHDNAQC] (H-CTRKKHDNAQC-OH; disulfide 1-11)
inhibition of rα2I binding to B. jararaca venom by peptide: about 50%
